The values below come from patent US20040009904A1, “APL immunoreactive peptides, conjugates thereof and methods of treatment for aPL antibody-mediated pathologies” (priority 1995, published 2004).

Bridge positions count the residues as written; N and C are the ends. Square brackets hold non-standard residues; d marks the D form. Peptide text beside a SMILES is read from it. NMeL = CN[C@@H](CC(C)C)C(=O)O; Phg = N[C@H](C(=O)O)c1ccccc1; Aib = CC(C)(N)C(=O)O; Sar = CNCC(=O)O

The test has as its target ACA-6501. The test is described as follows: Competitive binding peptide ACA ELISA, cardiolipin/β2-GPI-coated plates. Set-up: species or system human. The note with it: Optimization of Peptide 3G3; inf = no 50% inhibition. The procedure: A variation of this assay uses microtitration plates coated with human β2-glycoprotein I/cardiolipin (β2-GPI/CL) instead of tetravalent peptide and tests the ability of monomeric peptides to block the binding of aPL antibody to the epitope(s) on β2-GPI/CL. In this assay, IgG-depleted human serum at an optimized concentration is used as a source of β2-GPI. The monomeric peptides at several concentrations are incubated with an optimized concentration of aPL antibody in a manner analogous to the assay which employs tetravalent peptide as a plate substrate. Following the incubation of aPL/peptide in (β2-GPI/CL) plates, antibody binding and the peptide concentration required for 50% inhibition is determined at half-maximal absorbance as in the tetravalent assay.
Peptide sequences for all five peptides immediately follow the table. All were tested using the competitive binding peptide ACA ELISA using CL/β2-GPI plates as described herein.
(B) Immulon I® 96-well, flat-bottom, polystyrene microtitration plates (Dynatech Laboratories, Inc., Chantilly, Va.) were coated with 30 μL/well of cardiolipin (CL, 50 μg; Sigma Chemical Co., St. Louis, Mo.) in ethanol. Two control wells received 30 μL ethanol only. After overnight evaporation at 4° C., each well was blocked with 200 μL of 5% (w/v) fish gelatin in PBS for 2 hours at RT.
During this incubation, variable amounts of each of six peptides were mixed with 22 μL ACA-6501 serum diluted with 3% fish gelatin in 1:1 TBS/PBS (final dilution of 1:400) in a final volume of 220 μL using Eppendorf microcentrifuge tubes. Specifically, in tube #1 were mixed 181.3 μL of 3% fish gelatin in TBS-PBS, 16.7 μL of peptide stock solution plus 22 μL of ACA-6501 serum diluted 40 times in 3% fish gelatin/TBS-PBS. Stock solutions ranged from 450-800 μg/mL for peptides #951 (diserine non-cyclized negative control), #952 (a lot of LJP 690), and thioethers CCTE-3G3, CHTE-3G3, HCTE-3G3 and HHTE-3G3. To tube #2 the following were added: 148 μL fish gelatin/TBS-PBS, […] of peptide stock solution, plus 22 μL of 40 times diluted ACA-6501 serum. Tube #3 contained 48 μL fish gelatin/TBS-PBS, […] of peptide stock solution, plus 22 μL of 40 times diluted ACA-6501 serum. The control tube #4 received 396 μL fish gelatin/TBS-PBS and 44 μL of 40 times diluted ACA-6501 serum (no peptide). Each of the tubes incubated for approximately 1 hour at RT.
The CL/β2-GPI microtitration plate was washed 5 times with TBS and 100 μL aliquots in duplicate from Eppendorf tubes #1, 2, 3, and 4 containing the antibody-peptide (or no peptide mixtures) were added to the wells. A volume of 100 μL from tube #4 was added to the duplicate control wells containing no cardiolipin. The microtitration plate was incubated for 1 hour at RT with agitation at 40 rpm in an orbital shaker (American Scientific, Rotator V), washed 5 times with TBS and then 100 μL of 1:1000 goat anti-human IgG alkaline phosphatase conjugate (Zymed, Cat No. 62-8422) in 0.5% (w/v) BSA-TBS was added. Following incubation for 1 hour at RT, the microtitration plate was again washed 5 times with TBS and the colorimetric enzyme detection developed by adding 100 μL of PMPP solution (7.8 g phenolphthalein monophosphate plus 69.5 g of 2-amino-2-methyl-1-propanol in 100 mL water stock solution diluted 1:26 with water). After 21 minutes, the reaction was stopped by adding 50 μL of 0.2 M Na2HPO4 (Mallinckrodt) to each well. Absorbance at 550 nm was read in a microplate reader (Bio-Tek Instruments, Model EL 311). The amount of peptide that inhibited ACA-6501 binding by 50%, the IC50, was calculated from the graph at the intersection of half-maximal absorbance with amount of peptide added.
A general note: In an ELISA, binding on a coated surface is turned into a signal by an enzyme label.
On to `CC(C)C[C@@H]1NC(=O)[C@H](c2ccccc2)NC(=O)CNC(=O)[C@H](CC(C)C)NC(=O)[C@H](C(C)C)NC(=O)CNC(=O)[C@H](CC(C)C)NC(=O)[C@@H](N)CSSC[C@@H](C(=O)O)NC1=O` [C L G V L Gp G L C] (H-CLGVLG[Phg]LC-OH; disulfide 1-9), for which the “with ACA 6501 150 ug/mL” value was determined as 230 µg/mL.
For the molecule `CC(C)C[C@@H]1NC(=O)[C@H](CCCCN)NC(=O)[C@@H]2CCCN2C(=O)[C@H](CC(C)C)NC(=O)[C@H](C(C)C)NC(=O)CNC(=O)[C@H](CC(C)C)NC(=O)[C@@H](N)CSSC[C@@H](C(=O)O)NC1=O` [C L G V L P K L C] (H-CLGVLPKLC-OH; disulfide 1-9), the “with ACA 6501 150 ug/mL” value was determined as 350 µg/mL.
As for `CC(C)C[C@@H]1NC(=O)[C@H](CCCCN)NC(=O)C(C)(C)NC(=O)[C@H](CC(C)C)NC(=O)[C@H](C(C)C)NC(=O)CNC(=O)[C@H](CC(C)C)NC(=O)[C@@H](N)CSSC[C@@H](C(=O)O)NC1=O` [C L G V L aiB K L C] (H-CLGVL[Aib]KLC-OH; disulfide 1-9), the “with ACA 6501 150 ug/mL” value was determined as 110 µg/mL.
Then `CC(C)C[C@@H]1NC(=O)[C@H](CCCCN)NC(=O)[C@@H](C)NC(=O)[C@H](CC(C)C)NC(=O)[C@H](C(C)C)NC(=O)CNC(=O)[C@H](CC(C)C)NC(=O)[C@@H](N)CSSC[C@@H](C(=O)O)NC1=O` [C L G V L dA K L C] (H-CLGVL[dA]KLC-OH; disulfide 1-9), with 140 µg/mL; and `CC(C)C[C@@H]1NC(=O)[C@H](CCCCN)NC(=O)CN(C)C(=O)[C@H](CC(C)C)NC(=O)[C@H](C(C)C)NC(=O)CNC(=O)[C@H](CC(C)C)NC(=O)[C@@H](N)CSSC[C@@H](C(=O)O)NC1=O` [C L G V L nG K L C] (H-CLGVL[Sar]KLC-OH; disulfide 1-9), with 550 µg/mL; and `CC(C)C[C@@H]1NC(=O)[C@H](CCCCN)NC(=O)[C@H](c2ccccc2)NC(=O)[C@H](CC(C)C)NC(=O)[C@H](C(C)C)NC(=O)CNC(=O)[C@H](CC(C)C)NC(=O)[C@@H](N)CSSC[C@@H](C(=O)O)NC1=O` [C L G V Lp G K L C] (H-CLGVL[Phg]KLC-OH; disulfide 1-9), with 30 µg/mL.
For `CC(C)C[C@@H]1NC(=O)[C@H](CCCCN)NC(=O)CNC(=O)[C@@H](CC(C)C)NC(=O)[C@H](C(C)C)NC(=O)CNC(=O)[C@H](CC(C)C)NC(=O)[C@@H](N)CSSC[C@@H](C(=O)O)NC1=O` [C L G V dL G K L C] (H-CLGV[dL]GKLC-OH; disulfide 1-9) the value was 230 µg/mL; for `CC(C)C[C@@H]1NC(=O)[C@H](CCCCN)NC(=O)CNC(=O)[C@H](CC(C)C)N(C)C(=O)[C@H](C(C)C)NC(=O)CNC(=O)[C@H](CC(C)C)NC(=O)[C@@H](N)CSSC[C@@H](C(=O)O)NC1=O` [C L G V nL G K L C] (H-CLGV[NMeL]GKLC-OH; disulfide 1-9), 180 µg/mL.
For `CC(C)C[C@@H]1NC(=O)[C@H](CCCCN)NC(=O)CNC(=O)[C@H](c2ccccc2)NC(=O)[C@H](C(C)C)NC(=O)CNC(=O)[C@H](CC(C)C)NC(=O)[C@@H](N)CSSC[C@@H](C(=O)O)NC1=O` [C L G Vp G G K L C] (H-CLGV[Phg]GKLC-OH; disulfide 1-9), the “with ACA 6501 150 ug/mL” value came to 35 µg/mL.
For `CC(C)C[C@@H]1NC(=O)[C@H](CCCCN)NC(=O)CNC(=O)[C@H](CC(C)C)NC(=O)C(C)(C)NC(=O)CNC(=O)[C@H](CC(C)C)NC(=O)[C@@H](N)CSSC[C@@H](C(=O)O)NC1=O` [C L G aiB L G K L C] (H-CLG[Aib]LGKLC-OH; disulfide 1-9) the value was 110 µg/mL.
Take `CC(C)C[C@@H]1NC(=O)[C@H](CCCCN)NC(=O)CNC(=O)[C@H](CC(C)C)NC(=O)[C@@H](C(C)C)NC(=O)CNC(=O)[C@H](CC(C)C)NC(=O)[C@@H](N)CSSC[C@@H](C(=O)O)NC1=O` [C L G dV L G K L C] (H-CLG[dV]LGKLC-OH; disulfide 1-9): the “with ACA 6501 150 ug/mL” value was 260 µg/mL.
